Assay results taken from PMC4783567, “The Effect of Vinpocetine on Human Cytochrome P450 Isoenzymes by Using a Cocktail Method” (Evidence-based Complementary and Alternative Medicine : eCAM, 2016).

Key:
Test in all cases: five-probe cocktail in human liver microsomes, LC-MS/MS of metabolites
Format in all cases: biochemical
[1] = biological target: T1, CYP2E1 (Homo sapiens, UniProt P05181); details: chlorzoxazone 6-hydroxylation, printed 50 mM chlorzoxazone (unit as printed), 1 mM NADPH, pH 7.4, 37°C; unreliable (extrapolated above top concentration 100 μM; text says > 100 μM)
T1 construct: native enzyme in pooled human liver microsomes (BD Gentest); activity read by chlorzoxazone 6-hydroxylation
Excerpt: five-probe cocktail in human liver microsomes, LC-MS/MS of metabolites on CYP2E1

[2] = biological target: T2, CYP3A4 (Homo sapiens, UniProt P08684); details: testosterone 6β-hydroxylation, printed 50 mM testosterone (unit as printed), otherwise as row above; unreliable (extrapolated above top concentration 100 μM; text says > 100 μM)
T2 construct: native enzyme in pooled human liver microsomes (BD Gentest); activity read by testosterone 6beta-hydroxylation (CYP3A5 may contribute)
Excerpt: five-probe cocktail in human liver microsomes, LC-MS/MS of metabolites on CYP3A4

[3] = biological target: T3, CYP2D6 (Homo sapiens, UniProt P10635); details: dextrorphan formation, printed 5 mM dextromethorphan (unit as printed), 1 mM NADPH, pH 7.4, 37°C; unreliable (extrapolated above top concentration 100 μM; text says > 100 μM)
T3 construct: native enzyme in pooled human liver microsomes (BD Gentest); activity read by dextrorphan formation from dextromethorphan
Excerpt: five-probe cocktail in human liver microsomes, LC-MS/MS of metabolites on CYP2D6

[4] = biological target: T4, CYP2C9 (Homo sapiens, UniProt P11712); details: tolbutamide 4-hydroxylation, printed 100 mM tolbutamide (unit as printed), 1 mM NADPH, 3.3 mM MgCl2, pH 7.4, 37°C, 30 min; b29 prints 68.91; Table 2 prints vinpocetine in μg/mL, methods in μM
T4 construct: native enzyme in pooled human liver microsomes (BD Gentest); activity read by tolbutamide 4-hydroxylation
Excerpt: five-probe cocktail in human liver microsomes, LC-MS/MS of metabolites on CYP2C9

[5] = biological target: T5, CYP2C19 (Homo sapiens, UniProt P33261); details: omeprazole 5-hydroxylation, printed 50 mM omeprazole (unit as printed), 1 mM NADPH, pH 7.4, 37°C; unreliable (extrapolated above top concentration 100 μM; text says > 100 μM)
T5 construct: native enzyme in pooled human liver microsomes (BD Gentest); activity read by omeprazole 5-hydroxylation
Excerpt: five-probe cocktail in human liver microsomes, LC-MS/MS of metabolites on CYP2C19

T4 sequence (P11712 whole entry): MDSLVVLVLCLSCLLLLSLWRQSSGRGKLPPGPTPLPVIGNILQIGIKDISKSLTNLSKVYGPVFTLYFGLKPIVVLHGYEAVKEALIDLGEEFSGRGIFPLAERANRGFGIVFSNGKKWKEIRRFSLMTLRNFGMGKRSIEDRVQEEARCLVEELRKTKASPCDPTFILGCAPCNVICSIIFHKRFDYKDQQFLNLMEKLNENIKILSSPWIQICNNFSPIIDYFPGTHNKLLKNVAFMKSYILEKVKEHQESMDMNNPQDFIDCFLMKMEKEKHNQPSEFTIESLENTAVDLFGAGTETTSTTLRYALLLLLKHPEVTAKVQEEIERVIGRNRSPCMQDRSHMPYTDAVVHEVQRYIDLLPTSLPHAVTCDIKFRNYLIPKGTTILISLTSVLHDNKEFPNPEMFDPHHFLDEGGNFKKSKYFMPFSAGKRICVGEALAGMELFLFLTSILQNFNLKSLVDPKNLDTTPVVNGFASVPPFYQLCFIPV
T2 sequence (P08684 2-503): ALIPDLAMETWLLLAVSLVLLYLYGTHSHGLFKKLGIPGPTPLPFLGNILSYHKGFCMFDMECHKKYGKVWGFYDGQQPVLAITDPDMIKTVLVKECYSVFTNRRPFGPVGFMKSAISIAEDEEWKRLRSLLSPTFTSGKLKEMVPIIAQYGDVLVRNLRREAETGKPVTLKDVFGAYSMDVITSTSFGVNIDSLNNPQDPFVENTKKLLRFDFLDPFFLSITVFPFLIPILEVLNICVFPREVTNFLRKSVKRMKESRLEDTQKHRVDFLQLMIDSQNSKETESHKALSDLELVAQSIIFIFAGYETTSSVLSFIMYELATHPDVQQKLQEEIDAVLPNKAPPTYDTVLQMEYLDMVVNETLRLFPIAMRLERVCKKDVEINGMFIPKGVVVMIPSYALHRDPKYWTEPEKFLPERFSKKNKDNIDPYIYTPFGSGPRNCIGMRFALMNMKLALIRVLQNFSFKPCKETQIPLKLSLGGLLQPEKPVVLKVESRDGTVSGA
T3 sequence (P10635 whole entry): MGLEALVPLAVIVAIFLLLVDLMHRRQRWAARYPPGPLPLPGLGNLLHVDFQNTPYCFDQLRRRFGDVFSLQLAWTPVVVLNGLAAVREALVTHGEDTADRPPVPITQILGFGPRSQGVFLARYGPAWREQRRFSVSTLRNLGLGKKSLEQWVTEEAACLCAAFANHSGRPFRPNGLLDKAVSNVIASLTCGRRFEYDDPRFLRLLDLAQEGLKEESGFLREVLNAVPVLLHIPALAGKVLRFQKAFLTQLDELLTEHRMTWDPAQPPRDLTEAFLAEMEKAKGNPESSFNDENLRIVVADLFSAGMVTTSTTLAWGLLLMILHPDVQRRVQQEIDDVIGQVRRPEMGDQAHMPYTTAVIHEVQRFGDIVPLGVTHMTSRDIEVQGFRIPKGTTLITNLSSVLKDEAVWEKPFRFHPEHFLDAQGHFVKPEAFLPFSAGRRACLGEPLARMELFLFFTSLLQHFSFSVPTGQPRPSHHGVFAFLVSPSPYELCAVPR
T1 sequence (P05181 whole entry): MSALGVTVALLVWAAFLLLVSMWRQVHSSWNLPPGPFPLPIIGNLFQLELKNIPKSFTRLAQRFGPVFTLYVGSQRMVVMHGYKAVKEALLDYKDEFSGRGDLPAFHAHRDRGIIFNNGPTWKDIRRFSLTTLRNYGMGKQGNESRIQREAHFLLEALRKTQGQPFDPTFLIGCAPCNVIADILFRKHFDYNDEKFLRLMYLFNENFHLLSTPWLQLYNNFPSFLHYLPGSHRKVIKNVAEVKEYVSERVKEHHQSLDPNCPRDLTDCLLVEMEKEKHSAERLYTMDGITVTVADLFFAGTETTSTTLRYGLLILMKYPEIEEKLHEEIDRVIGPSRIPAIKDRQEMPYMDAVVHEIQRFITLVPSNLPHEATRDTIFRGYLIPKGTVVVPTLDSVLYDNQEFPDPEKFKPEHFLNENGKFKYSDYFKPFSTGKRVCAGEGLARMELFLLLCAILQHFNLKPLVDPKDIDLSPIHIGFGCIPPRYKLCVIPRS
T5 sequence (P33261 whole entry): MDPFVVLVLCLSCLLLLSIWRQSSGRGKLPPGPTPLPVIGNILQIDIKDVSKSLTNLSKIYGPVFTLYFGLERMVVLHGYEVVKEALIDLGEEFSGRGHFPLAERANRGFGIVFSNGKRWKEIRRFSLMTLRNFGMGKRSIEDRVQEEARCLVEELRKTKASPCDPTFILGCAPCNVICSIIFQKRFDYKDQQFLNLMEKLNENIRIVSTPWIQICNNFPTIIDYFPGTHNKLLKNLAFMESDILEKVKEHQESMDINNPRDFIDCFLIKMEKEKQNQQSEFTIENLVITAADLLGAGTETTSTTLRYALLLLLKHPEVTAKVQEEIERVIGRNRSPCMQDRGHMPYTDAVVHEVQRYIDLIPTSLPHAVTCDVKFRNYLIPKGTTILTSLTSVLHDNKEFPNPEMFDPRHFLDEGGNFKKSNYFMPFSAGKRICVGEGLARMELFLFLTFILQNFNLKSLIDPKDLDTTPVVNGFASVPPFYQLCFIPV

IC50 [1]: 2837 µM
IC50 [2]: 107.1 µM
IC50 [3]: 104.4 µM
IC50 (μM) [4]: 68.96 [95% CI: 49.14–96.79] μM
IC50 [5]: 285.1 µM
Structure (SMILES): CCOC(=O)C1=C[C@]2(CC)CCCN3CCc4c(n1c1ccccc41)[C@@H]32 [Vinpocetine, ethyl (3α,16α)-eburnamenine-14-carboxylate]
